Laboratory results: paper PMC4581723, “Evaluation of In Vitro Activity of the Class I PI3K Inhibitor Buparlisib (BKM120) in Pediatric Bone and Soft Tissue Sarcomas” (PLoS ONE, 2015)
Where two headings read alike, the source gives them in different places.

Tests used:
TC-32 = assay: Cell viability assay (MTT), 72 h; format: cell-based; conditions: Homo sapiens, TC-32 (ES), PIK3CA WT, read-out: Buparlisib cell viability IC50
KHOS = assay: Cell viability assay (MTT), 72 h; format: cell-based; conditions: KHOS (OS), PIK3CA WT, read-out: Buparlisib cell viability IC50
KHOS 240S = assay: Cell viability assay (MTT), 72 h; format: cell-based; conditions: KHOS 240S (OS), read-out: Buparlisib cell viability IC50
SJSA = assay: Cell viability assay (MTT), 72 h; format: cell-based; conditions: SJSA (OS), PIK3CA WT, read-out: Buparlisib cell viability IC50
HT161 = assay: Cell viability assay (MTT), 72 h; format: cell-based; conditions: HT161 (OS), PIK3CA WT, read-out: Buparlisib cell viability IC50
SJCRH30 = assay: Cell viability assay (MTT), 72 h; format: cell-based; conditions: SJCRH30 (RMS), PIK3CA WT, read-out: Buparlisib cell viability IC50
phospho-Akt (S473) [1] = assay: Immunoblot (quantitative) of Akt phosphorylation; format: cell-based; conditions: for IC50: 1 h treatment
Protocol: (§1) Cells were incubated for approximately one hour on ice in lysis buffer (50 mM Tris pH 7.6, 0.5% NP-40, 10% glycerol, 30 mM NaCl, 1 mM EDTA) supplemented with Complete Mini EDTA-free protease inhibitor cocktail (Roche), 1 mM Na3VO4, and 1 mM NaF. […] Secondary antibodies conjugated to HRP were sheep anti-mouse IgG from GE Healthcare and goat anti-rabbit IgG from Santa Cruz Biotechnology. Secondary antibodies conjugated to infrared dyes were IRDye 800CW goat anti-mouse IgG and IRDye 680RD goat anti-rabbit IgG from LI-COR Biosciences. Fluorescent westerns were imaged using the Odyssey Infrared Imaging System (LI-COR Biosciences). Signals were quantified by measuring the integrated intensity values of each band using Odyssey software (LI-COR Biosciences).
(§2) We next evaluated the ability of buparlisib to inhibit cellular signaling downstream of PI3K. Increasing doses were added to cells and phosphorylation of signaling molecules was examined by immunoblot after one hour of treatment (Fig 2A). […] Phospho-Akt levels were normalized to levels of total Akt and fit to dose-response curves to calculate the half maximal inhibitory concentration (IC50) (Fig 2B).
(§3) Each data point represents the average of at least three independent experiments.

[2] = system: ES (TC-174, A4573), OS (KHOS, MNNG), and RMS (RD) colonies; assay: Soft agar assay (anchorage independent growth); format: cell-based; conditions: 14 days
Excerpt: After 14 days of growth, colonies were stained with 0.005% crystal violet, imaged, and quantified using ImageJ. […] Increasing concentrations reduced both soft agar colony number and size (Fig 5A). Cell growth was inhibited within a narrower range than observed for anchorage dependent growth. […] (A) Plot of number and size of ES (TC-174, […]), OS (KHOS, MNNG), and RMS (RD) colonies formed in soft agar in the presence of DMSO or increasing concentrations of buparlisib. Columns represent the average of three replicates, error bars represent standard deviation. (B) Representative pictures of TC-174 soft agar colonies. (C) Immunoblot analysis of cleaved PARP in ES (TC-174, TC-32, […]), OS (KHOS), and RMS (RD, SJCRH30) treated with increasing doses of buparlisib for 24 hours. (D) Cell cycle analysis after 24 hours of buparlisib treatment of ES (TC-174, […]), OS (KHOS), and RMS (RD) cell lines. Data are the mean of two independent experiments.

phospho-4E-BP1 (T37/46) = assay: Immunoblot of signaling downstream of mTORC1; format: cell-based
Protocol: as §1, §2, §3

phospho-p70 S6K (T389) = assay: Immunoblot of signaling downstream of mTORC1; format: cell-based; conditions: increasing doses; one hour; compared with 4E-BP1
Protocol: as §1, §2, §3

phospho-Akt (S473) [3] = assay: Immunoblot (quantitative) of Akt phosphorylation; format: cell-based
MCF-7 = assay: Cell viability assay (MTT), 72 h; conditions: read-out: Buparlisib cell viability IC50, MCF-7 (breast), PIK3CA E545K
Protocol: Cells were seeded in 96-well plates and drugs were added after overnight incubation, with each treatment condition performed in triplicate. After drug treatment, 10 μl of 5 mg/ml MTT (3-(4,5-dimethylthiazolyl-2)-2, 5-diphenyltetrazolium bromide) in PBS was added to cells and allowed to incubate for 2–4 hours at 37°C. […] Plate absorbance was read at 595 nm using a Bio-rad microplate reader. Percent viability was calculated by normalizing absorbance values to those from cells grown in media without drug after background subtraction. IC50 values were calculated by fitting dose-response curves to a four-parameter, variable slope sigmoid dose-response model (Prism Software, GraphPad).

`Nc1cc(C(F)(F)F)c(-c2cc(N3CCOCC3)nc(N3CCOCC3)n2)cn1` [Buparlisib] was tested, and the IC50 (TC-32) was 0.972 µM, the IC50 (KHOS) was 1.57 µM and the IC50 (KHOS 240S) was 1.17 µM. It also gave an IC50 (SJSA) of 1.45 µM, an IC50 (HT161) of 1.07 µM and an IC50 (SJCRH30) of 1 µM. The IC50 (phospho-Akt (S473) [1]; 1 h, 6647 (ES), phospho-Akt S473 normalized to total Akt, read-out: Buparlisib Akt phosphorylation IC50) was 0.568 µM, the IC50 (phospho-Akt (S473) [1]; 1 h, HOS (OS), phospho-Akt S473 normalized to total Akt, read-out: Buparlisib Akt phosphorylation IC50) was 0.222 µM and the IC50 (phospho-Akt (S473) [1]; 1 h, KHOS (OS), phospho-Akt S473 normalized to total Akt, read-out: Buparlisib Akt phosphorylation IC50) was 0.109 µM. The IC50 (phospho-Akt (S473) [1]; 1 h, MNNG (OS), phospho-Akt S473 normalized to total Akt, read-out: Buparlisib Akt phosphorylation IC50) was 0.296 µM, the IC50 (phospho-Akt (S473) [1]; 1 h, RD (RMS), phospho-Akt S473 normalized to total Akt, read-out: Buparlisib Akt phosphorylation IC50) was 0.167 µM and the IC50 (phospho-Akt (S473) [1]; 1 h, SJCRH30 (RMS), phospho-Akt S473 normalized to total Akt, read-out: Buparlisib Akt phosphorylation IC50) was 0.2 µM. It also gave an IC50 (phospho-Akt (S473) [1]; 1 h, TC-174 (ES), phospho-Akt S473 normalized to total Akt, read-out: Buparlisib Akt phosphorylation IC50) of 0.313 µM, an IC50 (phospho-Akt (S473) [1]; 1 h, range over the cell lines tested, largest values in cell lines that lack PTEN expression, read-out: phospho-Akt (S473) IC50, range over cell lines) of 0.064 to 0.916 µM and an IC50 (phospho-Akt (S473) [1]; A4573, 1 h, A4573 (ES), phospho-Akt S473 normalized to total Akt, read-out: Buparlisib Akt phosphorylation IC50) of 0.916 µM. For the same compound, the IC50 (phospho-Akt (S473) [1]; Homo sapiens, A204, 1 h, A204 (RMS), phospho-Akt S473 normalized to total Akt, read-out: Buparlisib Akt phosphorylation IC50) was 0.0637 µM, the IC50 (phospho-Akt (S473) [1]; Homo sapiens, MCF7, 1 h, MCF-7 (breast), PIK3CA E545K, phospho-Akt S473 normalized to total Akt, read-out: Buparlisib Akt phosphorylation IC50) was 0.251 µM and the IC50 (phospho-Akt (S473) [1]; Homo sapiens, TC-32, 1 h, TC-32 (ES), phospho-Akt S473 normalized to total Akt, read-out: Buparlisib Akt phosphorylation IC50) was 0.28 µM. For the same compound, the IC50 (phospho-Akt (S473) [1]; KHOS-240S, 1 h, KHOS 240S (OS), phospho-Akt S473 normalized to total Akt, read-out: Buparlisib Akt phosphorylation IC50) was 0.198 µM, the “rapamycin-mediated Akt activation” value (phospho-Akt (S473) [1]; buparlisib added to rapamycin, A4573 cells) was “reduced rapamycin-mediated Akt activation” and the “Phosphorylation of Akt at serine 473 and threonine 308” value (phospho-Akt (S473) [1]; increasing doses, one hour of treatment, TC-32, KHOS, RD) was “inhibited”. For the same compound, the “concentrations at which no soft agar colony formation occurred” value [2] was “greater than 2 μM”, the “concentrations with minimal effects on soft agar colony formation” value [2] was “less than 1 μM” and the “Inhibition of phospho-4E-BP1” value (phospho-4E-BP1 (T37/46); increasing doses, one hour) was “only observed at high buparlisib concentrations”. For the same compound, the “phosphorylation of 4E-BP1” value (phospho-4E-BP1 (T37/46); treatment with both buparlisib and rapamycin, A4573 cells) was “more potently suppressed”, the “Phosphorylation of S6K” value (phospho-p70 S6K (T389)) was “more potently inhibited” and the “phospho-Akt levels compared to each drug alone” value (phospho-Akt (S473) [3]; combination with NVP-AEW541, A4573 cells, one hour of treatment) was “reduced phospho-Akt levels”. For the same compound, the “time to maximum inhibition of Akt” value (phospho-Akt (S473) [3]; time course 5 min to 24 h, 1 μM (3 μM in A4573)) was “approximately one”, the IC50 (MCF-7; Homo sapiens, MCF7, 72 h) was 0.173 µM and the IC50 (MCF-7) was 0.173 µM.
